# Assay results published in patent US8709764B2, “Enzymatic demethylation of flavonoids” (Universiteit Gent, priority 2005, dated 2014).
# Values joined by “and” are separate entries in the source; they are usually repeats but may differ in a detail not shown here. Equal entries are not always repeated.
# Experiments:
# [1] = tested on: fecal culture B supplemented with E. limosum; experiment: Supplementation of selected E. limosum strain to non-converting fecal culture B incubated with IX; assay type: in vitro ADME, human
# Procedure: The most efficient E. limosum strain, obtained from the selection experiment in example 2, was supplemented to the originally non-converting culture B of example 1, to examine the capacity of this strain to initiate the production of 8-PN in the complex environment of a fecal suspension. The strain was added to the culture in proportions ranging from 0% up to 100% (v/v). This mixture was incubated with 10% (v/v) of 25 mg/L IX for a period of seven days in Brain Heart Infusion broth (with 0.5 g/l cystein-HCl) under anaerobic conditions. The concentration of 8-PN was monitored every two days (FIG. 7).
# [2] = tested on: E. limosum; experiment: Selection of 8-PN producing E. limosum by repeated incubations with IX; assay type: in vitro ADME, Eubacterium limosum; conditions: 6 parallel incubations, 25 mg/l IX, 8 days
# Procedure: Because of the capacity of E. limosum to transform IX into 8-PN, a selection procedure was performed to obtain a strain, capable to quantitatively produce 8-PN. The selection procedure consisted of 6 parallel incubations of E. limosum [cultures from single colonies] with 25 mg/l IX and incubation for 8 days. Next, the culture which produced the highest amount of 8-PN was selected and used as inoculum for the next round of 6 parallel incubations (Table 3). […] This means that, after only three rounds, a strain was selected which converted almost all IX (high mean) and was also stable (low standard deviation).
smiles,measurement,setting,value
"COc1cc(O)c(CC=C(C)C)c2c1C(=O)C[C@@H](c1ccc(O)cc1)O2 [IX, 5-O-methyl-8-prenylnaringenin]",Conversion of IX into 8-PN,"[1]; 1% supplementation of E. limosum, after one day",half of the dosed IX was already transformed into 8-PN
same,Conversion of IX into 8-PN,[1]; equal amount of E. limosum culture and fecal sample (100% in FIG. 7),complete conversion of IX into 8-PN
same,"Molar % IX to 8-PN conversion, Highest",[2]; selection round I,46.5%
same,"Molar % IX to 8-PN conversion, Lowest",[2]; selection round I,2% and 2.1%
same,"Molar % IX to 8-PN conversion, Mean (stdev)",[2]; selection round I,22.5% and 22.5 (19.3) %
same,"Molar % IX to 8-PN conversion, Highest",[2]; selection round II,79.4%
same,"Molar % IX to 8-PN conversion, Lowest",[2]; selection round II,24.3%
same,"Molar % IX to 8-PN conversion, Mean (stdev)",[2]; selection round II,57.9 (19.6) %
same,"Molar % IX to 8-PN conversion, Lowest",[2]; selection round III,82% and 82.1%
same,"Molar % IX to 8-PN conversion, Mean (stdev)",[2]; selection round III,90.5% and 90.5 (6.9) %
